Test results as given in PubChem BioAssay (NCI).
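Step 1: Grow cells in 96-well plates. Step 2: Expose to compound for 48 hours at 5 concentrations. Step 3: Interpolate endpoints linearly; if unreached, use highest concentration. At the GI50, growth is halved. TGI: concentration producing complete growth inhibition.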

Experiments:
Assay in all cases: DTP human tumour cell line panel, 48 h
BT-549 breast = tested on: BT-549 breast
HL-60(TB) leukemia = tested on: HL-60(TB) leukemia
LOX IMVI melanoma = tested on: LOX IMVI melanoma
MCF7 breast = tested on: MCF7 breast
MDA-MB-231 breast = tested on: MDA-MB-231 breast
SNB-75 CNS = tested on: SNB-75 CNS
UACC-62 melanoma = tested on: UACC-62 melanoma
UO-31 renal = tested on: UO-31 renal

SMILES | TGI (BT-549 breast) | TGI (HL-60(TB) leukemia) | TGI (LOX IMVI melanoma) | TGI (MCF7 breast) | TGI (MDA-MB-231 breast) | TGI (SNB-75 CNS) | TGI (UACC-62 melanoma) | TGI (UO-31 renal) | GI50 (BT-549 breast) | GI50 (LOX IMVI melanoma) | GI50 (MCF7 breast) | GI50 (MDA-MB-231 breast) | GI50 (SNB-75 CNS) | GI50 (UACC-62 melanoma) | GI50 (UO-31 renal) | GI50 (HL-60(TB) leukemia)
COc1cc(C)c(C2NC(=O)c3ccccc3N2)cc1C (stereo not given) | 71.4 µM | 0.396 µM | 97.9 µM | > 89 µM | > 85.7 µM | 0.496 µM | > 100 µM | > 100 µM | – | – | – | – | – | – | – | –
COc1cc(NC(=O)CCSc2nc3ccc(C)cc3c(=O)n2Cc2ccccc2)cc(OC)c1OC | > 100 µM | – | > 100 µM | > 100 µM | 52.8 µM | 4.78 µM | > 100 µM | > 100 µM | 5.02 µM | 6.4 µM | 32 µM | 4.2 µM | 1.9 µM | 15.7 µM | 11.6 µM | –
c1ccc2c(-c3nc(-c4c[nH]c5ccncc45)cs3)c[nH]c2c1 | 21.3 µM | 4.73 µM | – | 3.16 µM | 2.53 µM | 22.2 µM | 3.33 µM | 2.62 µM | 8.82 µM | – | 1.43 µM | 1.06 µM | 10.3 µM | 1.67 µM | 1.21 µM | 2.02 µM
O=C(NCCc1ccccn1)OCc1nc2nc(Cl)nc(N3CCOCC3)c2[nH]1 | 6.83 µM | 4.96 µM | 1.61 µM | 5.17 µM | 3.17 µM | 15.5 µM | 3.03 µM | 2.55 µM | 2.22 µM | 0.372 µM | 1.59 µM | 1.6 µM | 2.42 µM | 1.53 µM | 1.28 µM | 1.83 µM
O=C(Nc1ccc(-c2nc(-c3cccc(OCCN4CCOCC4)c3)c(-c3ccnc(Br)c3)[nH]2)cc1)c1ccccc1 | > 100 µM | – | – | 3.14 µM | > 100 µM | 2.76 µM | 6.19 µM | 5.58 µM | 2.71 µM | – | 0.74 µM | 2.84 µM | 0.364 µM | 1.91 µM | 2 µM | –
C1=C2CCCC3=Cc4ccccc4OC23Oc2ccccc21 | 73.7 µM | > 100 µM | 28 µM | 60.6 µM | 45.5 µM | 5.84 µM | 82.5 µM | > 100 µM | 3.73 µM | 3.88 µM | 3.03 µM | 4.23 µM | 1.64 µM | 2.91 µM | 4.86 µM | 3.24 µM
O=C(Oc1ccc(CO[N+](=O)[O-])cc1)c1ccccc1 | 0.27 µM | 0.267 µM | 0.316 µM | 0.722 µM | 0.306 µM | 0.333 µM | 0.396 µM | 0.322 µM | 0.139 µM | 0.163 µM | 0.194 µM | 0.144 µM | 0.158 µM | 0.169 µM | 0.172 µM | 0.0514 µM
O=C1CCC(N2C(=O)c3ccccc3C2=O)C(=O)N1 (stereo not given) | > 100 µM | > 100 µM | > 100 µM | > 100 µM | > 100 µM | > 100 µM | > 100 µM | > 100 µM | – | > 100 µM | – | > 100 µM | – | – | – | > 100 µM
COC(=O)C1C(O)C(C)C(O)C(C)C=C(C)C2=C3C(=C(C)C(=O)c4c(O)c(c(C)c(OC(C)=O)c43)NC(=O)C(C)=C/C=C\C(C)C(O)C(C)C1O)OCO2 (stereo not given) | 39.2 µM | 41.6 µM | 43 µM | 58.7 µM | 77.6 µM | 92.9 µM | 74.5 µM | > 100 µM | – | – | – | – | – | – | – | –
CCCCCC[C@H](C)Nc1nc2ccccc2c2occc12 | 18.5 µM | 37.8 µM | 21.4 µM | > 100 µM | 24 µM | 30.5 µM | 24.1 µM | 19.2 µM | 4.38 µM | 8.61 µM | > 100 µM | 10.6 µM | 14.8 µM | 11.6 µM | 4.55 µM | 11.9 µM
Cc1nn2c(/C=C3/C(=O)Nc4cc(Cl)ccc43)c(-c3ccccc3)nc2s1 | > 100 µM | > 100 µM | 6.02 µM | > 100 µM | 5.62 µM | 8.44 µM | – | 3.53 µM | 6.63 µM | 2.41 µM | 5.84 µM | 1.99 µM | 1.6 µM | – | 1.59 µM | > 100 µM
Cc1cc(N=C2C=C(Br)C(=O)C(Br)=C2)cc(CN(CC(=O)O)CC(=O)O)c1O | – | > 100 µM | – | > 100 µM | > 100 µM | > 100 µM | > 100 µM | > 100 µM | – | – | – | – | – | – | – | –
O=C(c1ccccc1)c1c(NCC(O)CN2CCOCC2)n(Cc2ccccc2)c(=O)n(Cc2ccccc2)c1=O (stereo not given) | > 100 µM | – | > 100 µM | > 100 µM | > 100 µM | > 81.7 µM | > 100 µM | > 100 µM | 29.3 µM | 38.6 µM | 48.2 µM | 28.8 µM | > 36.8 µM | 36.7 µM | 34.5 µM | –
Cc1nc(Nc2cccnc2)sc1C(=O)/C=C/c1ccc(Cl)cc1 | 7.22 µM | – | 3.75 µM | 10.7 µM | > 100 µM | 14.7 µM | 5.84 µM | 4.61 µM | 2.2 µM | 1.83 µM | 1.92 µM | 4.7 µM | 2.82 µM | 2.32 µM | 1.81 µM | –
COc1cc2c(cc1OC)C(=O)/C(=C/c1cc(-c3ccc4c(c3)OCO4)n[nH]1)C2 | 3.04 µM | 5.59 µM | – | 1.42 µM | 3.2 µM | 3.02 µM | 3.04 µM | 2.67 µM | 1.62 µM | – | 0.339 µM | 1.66 µM | 1.65 µM | 1.63 µM | 1.29 µM | 2.07 µM
CC(C)(C)OC(=O)NCCCn1c2c(c3ccccc3c1=O)C(=O)c1ccccc1-2 | > 100 µM | > 100 µM | 43 µM | 39.4 µM | 48.8 µM | – | 53.6 µM | > 100 µM | 31.7 µM | 6.98 µM | 15 µM | 12.9 µM | – | 20.4 µM | 71.5 µM | > 100 µM
COC(=O)C1=C(C(=O)OC)C2(C)C=CC1O2 (stereo not given) | 46 µM | – | 34.5 µM | > 100 µM | 31 µM | 66.2 µM | 31.9 µM | 17.6 µM | – | – | – | – | – | – | – | –
O=c1[nH]c2ccccc2n1CCCN1CCC(n2c(=O)[nH]c3cc(Cl)ccc32)CC1 | 33.2 µM | 37.3 µM | – | 34.9 µM | 37.4 µM | – | 37.2 µM | 20.3 µM | – | – | – | – | – | – | – | –
